Assay results as given in publication PMC6476888, “Design and synthesis of anticancer 1-hydroxynaphthalene-2-carboxanilides with a p53 independent mechanism of action” (Scientific Reports, 2019).
Like-named read-outs stand apart in the source and are kept apart here.

Experiments:
[1] = tested on: NHDF; assay: Cytotoxicity (MTS, 72 h) against normal human fibroblasts; format: cell-based; conditions: MTS, 72 h incubation
Description: (§1) All of the synthesized compounds were tested for their antiproliferative activity against human colon cancer (Table 1). We used both the wild-type and p53-negative cell lines (HCT116^+/+ and HCT116^−/−, respectively). Mutations in the TP53 gene are present in more than 50% of all cancers and often specifically correspond to a difficult therapy, resistance or a bad prognosis[60]–[63]. The active compounds were additionally tested for their cytotoxicity against normal human fibroblasts. We used 5-fluorouracil (5-FLU), doxorubicin (DOX) and CP-31398 as the standards. 5-FLU is one of the first antimetabolites that was dedicated for cancer treatment and is still used for a wide range of cancers including colon carcinoma. Doxorubicin is a DNA topoisomerase II poison with a high intercalating potency, which is able to induce apoptosis through the p53 pathway. Although DOX has been described as being ineffective in some p53 mutants, its level of activity against the p53 null lines is similar. CP-31398, on the other hand, is an experimental drug in the clinical phase and its mechanism of action is through the reactivation some of p53 mutants. Its activity against the p53 null cell lines is greatly diminished and is actually lower than its cytotoxicity.
(§2) The human colon cancer cell line HCT116 wild type was obtained from ATCC and the normal human fibroblast cell lines NHDF were obtained from PromoCell. The human colon cancer cell line HCT116 with a p53 deletion (p53^−/−) was kindly provided by Prof. M. Rusin from the Maria Sklodowska-Curie Memorial Cancer Centre and Institute of Oncology in Gliwice, Poland[89]. The cells were grown as monolayer cultures in Dulbecco’s modified Eagle’s medium with the antibiotic gentamicin (200 μL/100 mL medium) in 75 cm^2 flasks (Nunc). The DMEM for the HCT116 were supplemented with 12% heat-inactivated fetal bovine serum (Sigma-Aldrich, St. Louis, MO, USA) and for NHDF with 15% non-inactivated fetal bovine serum (Sigma Aldrich, St. Louis, MO, USA). The cells were cultured under standard conditions at 37 °C in a humidified atmosphere at 5% CO2.
(§3) The cells were seeded in 96-well plates (Nunc) at a density of 5,000 cells/well (HCT116) and 4,000 cells/well (NHDF) and incubated at 37 °C for 24 h. The assay was performed following a 72 h incubation with varying concentrations of the compounds that were being tested. Then, 20 µL of CellTiter 96® AQueous One Solution-MTS (Promega) was added to each well (with 100 µL DMEM without phenol red) and incubated for 1 h at 37 °C. The optical densities of the samples were analyzed at 490 nm using a Synergy 4 multi-plate reader (BioTek, Winooski, VT, USA). The results are expressed as the percentage of the control and were calculated as the inhibitory concentration (IC50) values (using a GraphPad Prism 7). The IC50 parameter was defined as the compound concentration that was necessary to reduce the proliferation of cells to 50% of the untreated control. Each individual compound was tested in triplicate in a single experiment with each experiment being repeated three or four times.

[2] = tested on: HCT116^−/−; assay: Antiproliferative assay (MTS, 72 h) on HCT116 with p53 deletion; format: cell-based, human; conditions: MTS, 72 h incubation
Description: as §1, §2, §3

[3] = tested on: HCT116^+/+; assay: Antiproliferative assay (MTS, 72 h) on HCT116 wild type; format: cell-based, human; conditions: MTS, 72 h incubation, read-out: Activity IC50 HCT116^+/+
Description: as §1, §2, §3

Compound	IC50 [1] [µM]	IC50 [2] [µM]	IC50 [3] [µM]	IC50 ([2]; Homo sapiens, HCT-116) [µM]	IC50 ([3]; Homo sapiens, HCT-116) [µM]	IC50 ([1]; Homo sapiens, NHDF) [µM]
O=C(Nc1ccccc1Cl)c1ccc2ccccc2c1O [5a]	> 25	22.4 ± 3.58	16.5 ± 2.25			
O=C(Nc1ccccc1)c1ccc2ccccc2c1O [compound 1]				> 25	> 25	
Cc1cccc(C)c1NC(=O)c1ccc2ccccc2c1O [3e]				> 25	> 25	
O=C(Nc1ccc(Br)cc1Cl)c1ccc2ccccc2c1O [5n]	23.4 ± 0.86	9.79 ± 1.95	2.33 ± 0.95			
O=C(Nc1c(Cl)cccc1Cl)c1ccc2ccccc2c1O [5g]		> 25	> 25			
O=C(Nc1ccc(Br)cc1Br)c1ccc2ccccc2c1O [6d]	> 25	4.61 ± 0.72	4.56 ± 0.43			
COc1cccc(NC(=O)c2ccc3ccccc3c2O)c1 [2b]	> 25	24.1 ± 3.54	8.51 ± 1.69			
O=C(Nc1cc(Br)ccc1Br)c1ccc2ccccc2c1O [6e]	> 25	5.85 ± 0.61	5.24 ± 0.28			
O=C(Nc1cc(C(F)(F)F)ccc1Cl)c1ccc2ccccc2c1O [5r]				1.46 ± 0.21	2.48 ± 0.31	12.4 ± 1.14
Cc1cccc(NC(=O)c2ccc3ccccc3c2O)c1 [3b]		> 25	> 25			
O=C(Nc1ccc([N+](=O)[O-])c(C(F)(F)F)c1)c1ccc2ccccc2c1O [7p]	9.68 ± 1.49	1.39 ± 0.44	1.64 ± 0.47			
O=C(Nc1ccc(C(F)(F)F)c(F)c1)c1ccc2ccccc2c1O [4w]				4.82 ± 1.46	3.25 ± 0.94	22.8 ± 2.69
O=C(Nc1cccc(C(F)(F)F)c1)c1ccc2ccccc2c1O [7b]	> 25	1.39 ± 0.29	6.25 ± 0.47			
O=C(Nc1cc(C(F)(F)F)ccc1Br)c1ccc2ccccc2c1O [6k]	22.2 ± 0.83	7.15 ± 1.96	8.18 ± 1.72			
Cc1cc(C)cc(NC(=O)c2ccc3ccccc3c2O)c1 [3f]				> 25	19.3 ± 1.68	> 25
O=C(Nc1ccc(C(F)(F)F)cc1[N+](=O)[O-])c1ccc2ccccc2c1O [8d]		> 25	> 25			
O=C(Nc1cc(Br)ccc1Cl)c1ccc2ccccc2c1O [5q]	> 25	5.4 ± 2.04	4.18 ± 1.49			
COc1ccccc1NC(=O)c1ccc2ccccc2c1O [2a]		> 25	> 25			
O=C(Nc1ccccc1Br)c1ccc2ccccc2c1O [6a]	> 25	> 25	22.5 ± 3.62			
O=C(Nc1c(Br)cccc1Br)c1ccc2ccccc2c1O [6f]		> 25	> 25			
O=C(Nc1cc(C(F)(F)F)ccc1C(F)(F)F)c1ccc2ccccc2c1O [7e]	22.9 ± 2.1	8.53 ± 3.37	4.44 ± 1.16			
O=C(Nc1ccc(Cl)cc1Br)c1ccc2ccccc2c1O [6h]	> 25	13.2 ± 2.3	9.54 ± 2.71			
O=C(Nc1ccc(F)cc1)c1ccc2ccccc2c1O [4c]	> 25	5.01 ± 1.12	2.49 ± 0.61			
O=C(Nc1cc(Cl)c(Cl)c(Cl)c1)c1ccc2ccccc2c1O [5l]	7.01 ± 0.42	2.86 ± 0.33	1.31 ± 0.15			
O=C(Nc1cc(Cl)ccc1Cl)c1ccc2ccccc2c1O [5f]	> 25	7.19 ± 1.15	7.45 ± 0.85			
COc1cc(NC(=O)c2ccc3ccccc3c2O)cc(OC)c1 [2e, N-(3,5-dimethoxyphenyl)−1-hydroxynaphthalene-2-carboxamide]				> 25	> 25	> 25
O=C(Nc1ccccc1F)c1ccc2ccccc2c1O [4a]		> 25	> 25			
O=C(Nc1cccc(Cl)c1)c1ccc2ccccc2c1O [5b]	> 25	1.78 ± 0.32	4.7 ± 0.4			
O=C(Nc1cccc(Cl)c1Cl)c1ccc2ccccc2c1O [5d]	> 25	8.25 ± 0.64	4.66 ± 0.58			
